≈ marks a conversion by molar mass, not a printed value. Like-named read-outs stand apart in the source and are kept apart here.
Legend:
Escherichia coli 1507 E = experiment: In vitro anti-bacterial activity test (MIC, two-fold dilution method) against the standard strains; assay type: cell-based; conditions: Table 1 strain 11: Escherichia coli 1507 E
[1] = test system: Pseudomonas aeruginosa 1592 E; experiment: as above; assay type: cell-based; conditions: Table 1 strain 13: Pseudomonas aeruginosa 1592 E
P. mirabilis = experiment: Preventive effect against the systemic infection; assay type: in vivo; conditions: Proteus mirabilis, 168 h, NMRI mice, survival on day 7, read-out: ED₅₀
Description: (§1) 10 fold of the pathogen which leads to 100% lethality were injected intraperitoneally to male and female NMRI mice weighing 18 to 20g. Immediately and after 4 hours, the dose of test compounds which was determined by two-fold serial dilution method was administered orally or subcutaneously; and on day 7, the effectiveness was evaluated in terms of ED₅₀ calculated from the number of survived mice by the probit analysis.

S. aureus 17740 = experiment: Preventive effect against the systemic infection; assay type: in vivo; conditions: Staphylococcus aureus, 168 h, NMRI mice, survival on day 7, read-out: ED₅₀
Description: as §1

Escherichia coli OTEM = experiment: In vitro anti-bacterial activity test (MIC, two-fold dilution method) against the standard strains; assay type: cell-based; conditions: Table 1 strain 10: Escherichia coli OTEM
Escherichia coli DC 2 = experiment: as above; assay type: cell-based; conditions: DC2
[2] = test system: Enterobacter cloacae 1321 E; experiment: as above; assay type: cell-based; conditions: Table 1 strain 20: Enterobacter cloacae 1321 E
[3] = test system: Staphylococcus aureus SG 511; experiment: as above; assay type: cell-based; conditions: SG511; Table 1 strain 4: Staphylococcus aureus SG 511
[4] = test system: Klebsiella aerogenes 1522 E; experiment: as above; assay type: cell-based; conditions: Table 1 strain 18: Klebsiella aerogenes 1522 E
[5] = test system: Pseudomonas aeruginosa 1771; experiment: as above; assay type: cell-based; conditions: Table 1 strain 14: Pseudomonas aeruginosa 1771
[6] = test system: Enterobacter cloacae P 99; experiment: as above; assay type: cell-based; conditions: P99; Table 1 strain 19: Enterobacter cloacae P 99
[7] = test system: Streptococcus pyogenes 308 A; experiment: as above; assay type: cell-based; conditions: Table 1 strain 1: Streptococcus pyogenes 308 A
Escherichia coli DC 0 [8] = experiment: as above; assay type: cell-based; conditions: DC0; Table 1 strain 8: Escherichia coli DC 0
[9] = test system: Klebsiella aerogenes 1082 E; experiment: as above; assay type: cell-based; conditions: Table 1 strain 17: Klebsiella aerogenes 1082 E
Escherichia coli DC 0 [10] = experiment: as above; assay type: cell-based; conditions: DC0; Table 1 strain 7: Escherichia coli DC 0
[11] = test system: Staphylococcus aureus 503; experiment: as above; assay type: cell-based; conditions: Table 1 strain 6: Staphylococcus aureus 503; read-out: MIC
[12] = test system: Streptococcus faecium MD 8b; experiment: as above; assay type: cell-based; conditions: Enterococcus faecium, MD8B; Table 1 strain 3: Streptococcus faecium MD 8b; read-out: MIC
[13] = test system: Pseudomonas aeruginosa 1771 M; experiment: as above; assay type: cell-based; conditions: Table 1 strain 15: Pseudomonas aeruginosa 1771 M
[14] = test system: Streptococcus pyogenes 77 A; experiment: as above; assay type: cell-based; conditions: Table 1 strain 2: Streptococcus pyogenes 77 A; read-out: MIC
Salmonella typhimurium = experiment: as above; assay type: cell-based; conditions: Salmonella enterica; Table 1 strain 16: Salmonella typhimurium
[15] = test system: Staphylococcus aureus 285; experiment: as above; assay type: cell-based; conditions: Table 1 strain 5: Staphylococcus aureus 285; read-out: MIC
[16] = test system: Pseudomonas aeruginosa 9027; experiment: as above; assay type: cell-based; conditions: Table 1 strain 12: Pseudomonas aeruginosa 9027
Acute Toxicity Test = conditions: mouse, in vivo, female ICR mice, day 14, read-out: Acute Toxicity(LD₅₀)
Description: Test compounds were administered to female ICR mice weighing 20 to 25g and on day 14, LD₅₀ was calculated from the number of survived mice by the probit analysis.

| Compound | MIC (Escherichia coli 1507 E) [µg/mL] | MIC [1] [µg/mL] | ED50 (S. aureus 17740; Oral Administration) [mg/kg] | ED50 (S. aureus 17740; sc, Subcutaneous Injection) [mg/kg] | MIC (Escherichia coli OTEM) [µg/mL] | MIC [2] [µg/mL] | MIC [3] [µg/mL] | MIC [4] [µg/mL] | MIC [5] [µg/mL] | MIC [6] [µg/mL] | MIC [7] [µg/mL] | MIC (Escherichia coli DC 0 [8]) [µg/mL] | MIC [9] [µg/mL] | MIC (Escherichia coli DC 0 [10]) [µg/mL] | MIC [11] [µg/mL] | MIC [12] [µg/mL] | MIC [13] [µg/mL] | MIC [14] [µg/mL] | MIC (Salmonella typhimurium) [µg/mL] | MIC [15] [µg/mL] | also measured |
| --- | --- | --- | --- | --- | --- | --- | --- | --- | --- | --- | --- | --- | --- | --- | --- | --- | --- | --- | --- | --- | --- |
| NC1CC12CCN(c1c(F)cc3c(=O)c(C(=O)O)cn(C4CC4)c3c1F)C2 (centres unmarked) [Example 1, 7-(1-amino-5-azaspiro[2,4]heptane-5-yl)-1-cyclopropyl-6,8-difluoro-1,4-dihydro-4-oxoquinoline-3-carboxylic acid] | 0.013 (≈ 0.0346 µM) | 0.391 (≈ 1.04 µM) | 128 | 16.8 | 0.013 (≈ 0.0346 µM) | 0.004 (≈ 0.0107 µM) | 0.025 (≈ 0.0666 µM) | 0.013 (≈ 0.0346 µM) | 0.391 (≈ 1.04 µM) | 0.013 (≈ 0.0346 µM) | 0.195 (≈ 0.519 µM) | 0.195 (≈ 0.519 µM) | 0.004 (≈ 0.0107 µM) | 0.004 (≈ 0.0107 µM) | 0.025 (≈ 0.0666 µM) | 0.195 (≈ 0.519 µM) | 0.195 (≈ 0.519 µM) | 0.098 (≈ 0.261 µM) | 0.013 (≈ 0.0346 µM) | 0.025 (≈ 0.0666 µM) | ED50 (P. mirabilis; Oral Administration): 7.13 mg/kg; ED50 (P. mirabilis; sc, Subcutaneous Injection): 1.36 mg/kg; MIC (Escherichia coli DC 2; Table 1 strain 9: Escherichia coli DC 2, read-out: MIC): 0.049 µg/mL (≈ 0.131 µM); MIC [16]: 0.781 µg/mL (≈ 2.08 µM); LD50 (Acute Toxicity Test; ip, Intraperitoneal Injection): 605 mg/kg; LD50 (Acute Toxicity Test; Oral Administration): 3800 mg/kg |
| CC(O)C(=O)O.NC1CC12CCN(c1c(F)cc3c(=O)c(C(=O)O)cn(C4CC4)c3c1F)C2 (centres unmarked) [Example 2, 7-(1-amino-5-azaspiro[2,4]heptane-5-yl)-1-cyclopropyl-6,8-difluoro-1,4-dihydro-4-oxoquinoline-3-carboxylic acid lactate] | 0.025 | 0.781 | 49.7 | 97.6 | 0.025 | 0.007 | 0.025 | 0.025 | 0.781 | 0.013 | 0.195 | 0.195 | 0.013 | 0.004 | 0.025 | 0.098 | 0.098 | 0.098 | 0.013 | 0.025 | MIC (Escherichia coli DC 2; Escherichia coli): 0.049 µg/mL; MIC [16]: 0.781 µg/mL; LD50 (Acute Toxicity Test; ip, Intraperitoneal Injection): 580 mg/kg; LD50 (Acute Toxicity Test; Oral Administration): 3800 mg/kg |

— EP0550016A1, “Novel quinolone carboxylic acid derivatives and processes for preparing same” (KOREA RESEARCH INSTITUTE OF CHEMICAL TECHNOLOGY, priority 1991, dated 1993)
